{"source": "patent US12551480B2", "about": "“Treatment using EYP001” (ENYO PHARMA, priority 2019, dated 2026)", "key": {"[1]": {"assay": "Study EYP001-202 Phase 2a in NASH patients: pruritus intensity on Visual Analog Scale, safety and tolerance", "assay_type": "in vivo, human", "method": "Values are AUC least square means (error bars=SE). AUC=area under the concentration-time curve; BID=twice daily; QD=once daily. * p<0.05 versus Placebo.\n(§1) EYP001a is an investigational agonist of the FXR, a key regulator of bile, lipid, and glucose metabolism. […] Study EYP001-202 is a Phase 2a, 2-part study conducted to determine the efficacy and safety profiles of different doses and dosing regimens of EYP001 (100 mg twice daily [BID] and 200 mg once daily [QD]) versus placebo on LFC (liver fat content) from baseline to Week 12 in patients with NASH. An interim analysis on 24 patients enrolled in Part A Safety Run-in Cohort focused on safety, tolerance and key efficacy results.\nVAS (Visual Analog Score) results were the followings: 100 mg BID group (mean change from baseline ranged from 3.34 on Day 7 to 6.84 on Day 21), and the 200 mg QD group (mean change from baseline ranged from 3.03 on Day 28 to 3.47 on Day 56).\nThe efficacy was shown with a significant, clinically relevant LFC reduction from baseline. However, tolerance was affected due to pruritus events causing premature terminations. The BID regimen less well tolerated compared to QD regimen. In addition, a higher efficacy is associated to the QD regimen in comparison to the BID."}, "[2]": {"assay": "Study EYP001-202 Phase 2a in NASH patients: liver fat content (LFC) change from baseline to Week 12 by MRI-PDFF", "assay_type": "in vivo, human", "method": "FIG. 2: Absolute Liver Fat Content Change (%) from baseline assessed by MRI-PDFF in NASH patients treated during 12 weeks with EYP001 100 mg BID (n=4) or EYP001 200 mg QD (n=3) or Placebo (n=5). Values expressed as means; error bar is SE. #p=0.07 vs baseline. The ------- line corresponds to a 5% clinical meaningful reduction. Analysis of covariance (ANCOVA) model with change from baseline as the dependent variable and baseline Liver Fat Content as a covariate and treatment (pooled EYP001 and Placebo BID) and stratification factors—statin use and T2DM status at screening as factors.\nas §1\nThe primary efficacy endpoint of LFC reduction was met."}, "[3]": {"assay": "NASH rodent model", "assay_type": "in vivo"}, "[4]": {"tested_on": "HBV (plasma HBsAg)", "assay": "Plasma HBsAg change from baseline in patients with chronic Hepatitis B infection, 4 weeks", "assay_type": "in vivo, human", "conditions": "400 mg QD vs 200 mg BID, chronic Hepatitis B patients (FIG. 3)", "method": "FIG. 3: Plasma HBsAg (Log 10 IU/mL) change from baseline in patients with chronic Hepatitis B infection. Patients received during 4 weeks either Placebo (n=8), EYP001 200 mg BID (n=8) or EYP001 400 mg QD (n=8). Values expressed as mean; error bar is SD. * p<0.05 vs baseline.\nPatients chronically infected with HBV underwent a 4-week treatment as either daily oral FXR agonist EYP001 monotherapy or placebo or entecavir (ETV) in Part A of the study (n=48) or in combination with IFN (Part B, n=23, weekly sub-cutaneous injections of pegylated IFNα2a, PEG-IFN). Overall 15 (30%) patients developed pruritus related to EYP001, a well-known TEAE with FXR agonist, the mechanism of which however is poorly understood."}, "[5]": {"conditions": "human, in vivo"}, "[6]": {"conditions": "clinical trials of obeticholic acid (PBC, NASH); cited from earlier work"}}}
{"smiles": "O=C(O)c1cc2c(Cl)c(N3CCN(S(=O)(=O)c4c(Cl)cccc4Cl)CC3)ccc2o1", "note": "[EYP001]", "values": [{"measurement": "tolerance in VAS analysis (AUC over 12 weeks)", "setting": "[1]; NASH patients, 200 mg QD vs 100 mg BID (FIG. 1)", "result": "better tolerance"}, {"measurement": "serious AEs", "setting": "[1]; male and female F2-F3 NASH patients, 100 mg BID and 200 mg QD", "result": "no serious AEs"}, {"measurement": "LFC reduction, regimens compared", "setting": "[2]; 200 mg QD group compared to 100 mg BID group, 12 weeks (FIG. 2)", "result": "more pronounced effect"}, {"measurement": "LFC reduction, difference from placebo", "setting": "[2]; EYP001 groups pooled (100 mg BID and 200 mg QD), baseline to Week 12, p=0.04, absolute LFC change (%) by MRI-PDFF", "result": 8.62}, {"measurement": "effect on liver steatosis, inflammation, apoptosis and fibrosis", "setting": "[3]", "result": "reduced liver steatosis, inflammation, apoptosis, and fibrosis"}, {"measurement": "plasma HBsAg change from baseline, efficacy of regimens compared", "setting": "[4]", "result": "better efficacy"}, {"measurement": "frequency of pruritus with QD dosing compared to BID regimens", "setting": "[5]", "result": "up to four times less frequent pruritus"}, {"measurement": "any of above Pruritus related MEDRA (% of patients)", "setting": "[5]; 4 weeks", "result": 27, "unit": "%"}, {"measurement": "n = any of above Pruritus related MEDRA (number of patients)", "setting": "[5]; 4 weeks", "result": 9}, {"measurement": "none of above (% of patients without pruritus)", "setting": "[5]; 4 weeks", "result": 73, "unit": "%"}, {"measurement": "none of above (number of patients without pruritus)", "setting": "[5]; 4 weeks", "result": 24}, {"measurement": "patients who developed pruritus related to EYP001 (%)", "setting": "[5]; 4 weeks", "result": 30, "unit": "%"}, {"measurement": "patients who developed pruritus related to EYP001 (number)", "setting": "[5]; 4 weeks", "result": 15}]}
{"smiles": "CC[C@H]1[C@@H](O)[C@@H]2[C@H](CC[C@]3(C)[C@@H]([C@H](C)CCC(=O)O)CC[C@@H]23)[C@@]2(C)CC[C@@H](O)C[C@@H]12", "note": "[obeticholic acid]", "values": [{"measurement": "pruritus rates", "setting": "[6]", "result": "up to 51%"}]}
